Test results taken from patent US8796245B2 (TetraPhase Pharmaceuticals, Inc., priority 2008, dated 2014).
≈ marks a conversion by molar mass, not a printed value.

Columns and labels:
Assay type in all cases: cell-based
[1] = tested on: S. aureus ATCC 29213 (SA101, MSSA); test: Minimum inhibitory concentration assay, SA101; details: Staphylococcus aureus; S. aureus ATCC 29213, MSSA control; read-out: MICs SA101
Description: (§1) Frozen bacterial strains were thawed and subcultured onto Mueller Hinton Broth (MHB) or other appropriate media (Streptococcus requires blood and Haemophilus requires hemin and NAD). Following incubation overnight, the strains were subcultured onto Mueller Hinton Agar and again incubated overnight. […] Isolated colonies were selected to prepare a starting inoculum equivalent to a 0.5 McFarland standard. The starting inoculum was diluted 1:125 using MHB for further use. Test compounds were prepared by dilution in sterile water to a final concentration of 5.128 mg/mL. Antibiotics (stored frozen, thawed and used within 3 hours of thawing) and compounds were further diluted to the desired working concentrations.
(§2) The assays were run as follows. Fifty μL of MHB was added to wells 2-12 of a 96-well plate. One hundred […] of appropriately diluted antibiotics was added to well 1. Fifty μL of antibiotics was removed from well 1 and added to well 2 and the contents of well 2 mixed by pipetting up and down five times. Fifty μL of the mixture in well 2 was removed and added to well 3 and mixed as above. Serial dilutions were continued in the same manner through well 12. Fifty μL was removed from well 12 so that all contained 50 μL. Fifty μL of the working inoculum was then added to all test wells. A growth control well was prepared by adding 50 μL of working inoculum and 50 μL of MHB to an empty well. The plates were then incubated at 37° C. overnight, removed from the incubator and each well was read on a plate reading mirror. The lowest concentration (MIC) of test compound that inhibited the growth of the bacteria was recorded.

[2] = tested on: S. aureus ATCC 13709 (SA100, MSSA, Smith strain); test: Minimum inhibitory concentration assay, SA100; details: Staphylococcus aureus; S. aureus ATCC 13709, MSSA Smith strain; read-out: MICs SA100
Description: as §1, §2

[3] = tested on: S. aureus SA161 (tet resistant: tet(M) ribosomal protection); test: Minimum inhibitory concentration assay, SA161; details: Staphylococcus aureus, read-out: MICs SA161
Description: as §1, §2

[4] = tested on: E. coli EC155 (tet resistant: tetA efflux); test: microbe, parasite or virus in culture; details: Escherichia coli; E. coli tet resistant: tetA (efflux); read-out: MICs EC155
Description: as §1, §2

[5] = tested on: K. pneumoniae KP153 (tet resistant: tetA efflux); test: microbe, parasite or virus in culture; details: Klebsiella pneumoniae, read-out: MICs KP153
Description: as §1, §2

[6] = tested on: S. aureus SA158 (tet resistant: tetK efflux); test: microbe, parasite or virus in culture; details: Staphylococcus aureus, read-out: MICs SA158
Description: as §1, §2

[7] = tested on: E. faecalis ATCC 29212 (EF103); test: Minimum inhibitory concentration assay, EF103; details: Enterococcus faecalis, ATCC29212, read-out: MICs EF103
Description: as §1, §2

[8] = tested on: E. faecalis EF159 (tet resistant: tetM); test: Minimum inhibitory concentration assay, EF159; details: Enterococcus faecalis, read-out: MICs EF159
Description: as §1, §2

[9] = tested on: S. pneumoniae ATCC 49619 (SP106); test: Minimum inhibitory concentration assay, SP106; details: Streptococcus pneumoniae, ATCC49619; S. pneumoniae ATCC 49619, wt; read-out: MICs SP106
Description: as §1, §2

[10] = tested on: S. pneumoniae SP160 (tet resistant: tet M); test: Minimum inhibitory concentration assay, SP160; details: Streptococcus pneumoniae, read-out: MICs SP160
Description: as §1, §2

[11] = tested on: E. coli ATCC 25922 (EC107); test: Minimum inhibitory concentration assay, EC107; details: Escherichia coli, ATCC25922; E. coli ATCC 25922, wt; read-out: MICs EC107
Description: as §1, §2

[12] = tested on: A. baumanii ATCC 19606 (AB110); test: Minimum inhibitory concentration assay, AB110; details: Acinetobacter baumannii, ATCC19606; A. baumanii ATCC 19606, wt; read-out: MICs AB110
Description: as §1, §2

[13] = tested on: P. aeruginosa ATCC 27853 (PA111); test: Minimum inhibitory concentration assay, PA111; details: Pseudomonas aeruginosa, ATCC27853; P. aeruginosa ATCC 27853, wt; read-out: MICs PA111
Description: as §1, §2

[14] = tested on: E. cloacae ATCC 13047 (EC108); test: Minimum inhibitory concentration assay, EC108; details: Enterobacter cloacae, ATCC13047; E. cloacae ATCC 13047, wt; read-out: MICs EC108
Description: as §1, §2

[15] = tested on: K. pneumoniae ATCC 13883 (KP109); test: Minimum inhibitory concentration assay, KP109; details: Klebsiella pneumoniae, ATCC13883; K. pneumoniae ATCC 13883, wt; read-out: MICs KP109
Description: as §1, §2

With `CN(C)[C@@H]1C(O)=C(C(N)=O)C(=O)[C@@]2(O)C(O)=C3C(=O)c4c(O)c(NC(=O)CNC5CCCC5)cc(F)c4C[C@H]3C[C@@H]12` [Compound 18] the MIC [1] was 0.0625 µg/mL (≈ 0.109 µM), the MIC [2] was at most 0.0156 µg/mL and the MIC [3] was 0.0625 µg/mL (≈ 0.109 µM). The MIC [4] was 4 µg/mL (≈ 6.99 µM), the MIC [5] was 4 µg/mL (≈ 6.99 µM) and the MIC [6] was 0.125 µg/mL (≈ 0.218 µM). For the same molecule, the MIC [7] was at most 0.0156 µg/mL, the MIC [8] was 0.0313 µg/mL (≈ 0.0547 µM) and the MIC [9] was at most 0.0156 µg/mL. The MIC [10] was at most 0.0156 µg/mL, the MIC [11] was 0.125 µg/mL (≈ 0.218 µM) and the MIC [12] was 0.25 µg/mL (≈ 0.437 µM). The MIC [13] was 16 µg/mL (≈ 27.9 µM), the MIC [14] was 0.5 µg/mL (≈ 0.873 µM) and the MIC [15] was 0.5 µg/mL (≈ 0.873 µM).
In the case of `CCCCNCC(=O)Nc1cc(F)c2c(c1O)C(=O)C1=C(O)[C@]3(O)C(=O)C(C(N)=O)=C(O)[C@@H](N(C)C)[C@@H]3C[C@@H]1C2` [Compound 13], the MIC [1] is reported as at most 0.0156 µg/mL, the MIC [2] is reported as at most 0.0156 µg/mL and the MIC [3] is reported as 0.0625 µg/mL (≈ 0.111 µM). It also gave an MIC [4] of 4 µg/mL (≈ 7.14 µM), an MIC [5] of 2 µg/mL (≈ 3.57 µM) and an MIC [6] of 0.25 µg/mL (≈ 0.446 µM). The MIC [7] was at most 0.0156 µg/mL, the MIC [8] was 0.0625 µg/mL (≈ 0.111 µM) and the MIC [9] was at most 0.0156 µg/mL. For the same molecule, the MIC [10] was at most 0.0156 µg/mL, the MIC [11] was 0.125 µg/mL (≈ 0.223 µM) and the MIC [12] was 0.25 µg/mL (≈ 0.446 µM). It also gave an MIC [13] of 16 µg/mL (≈ 28.5 µM), an MIC [14] of 1 µg/mL (≈ 1.78 µM) and an MIC [15] of 0.5 µg/mL (≈ 0.892 µM).
With `CN(C)[C@@H]1C(O)=C(C(N)=O)C(=O)[C@@]2(O)C(O)=C3C(=O)c4c(O)c(NC(=O)CN5CC[C@@H](O)C5)cc(F)c4C[C@H]3C[C@@H]12` [Compound 39] the MIC [1] was 2 µg/mL (≈ 3.48 µM), the MIC [2] was 2 µg/mL (≈ 3.48 µM) and the MIC [3] was 2 µg/mL (≈ 3.48 µM). For the same molecule, the MIC [4] was over 32 µg/mL, the MIC [5] was over 32 µg/mL and the MIC [6] was 16 µg/mL (≈ 27.8 µM). For the same molecule, the MIC [7] was 2 µg/mL (≈ 3.48 µM), the MIC [8] was 2 µg/mL (≈ 3.48 µM) and the MIC [9] was 0.25 µg/mL (≈ 0.435 µM). For the same molecule, the MIC [10] was 0.5 µg/mL (≈ 0.87 µM), the MIC [11] was 4 µg/mL (≈ 6.96 µM) and the MIC [12] was 32 µg/mL (≈ 55.7 µM). For the same molecule, the MIC [13] was over 32 µg/mL, the MIC [14] was 16 µg/mL (≈ 27.8 µM) and the MIC [15] was 16 µg/mL (≈ 27.8 µM).
For `CCN(C)CC(=O)Nc1cc(F)c2c(c1O)C(=O)C1=C(O)[C@]3(O)C(=O)C(C(N)=O)=C(O)[C@@H](N(C)C)[C@@H]3C[C@@H]1C2` [Compound 24], the MIC [1] was 0.25 µg/mL (≈ 0.457 µM), the MIC [2] was 0.25 µg/mL (≈ 0.457 µM) and the MIC [3] was 0.125 µg/mL (≈ 0.229 µM). It also gave an MIC [4] of 8 µg/mL (≈ 14.6 µM), an MIC [5] of 8 µg/mL (≈ 14.6 µM) and an MIC [6] of 0.125 µg/mL (≈ 0.229 µM). For the same molecule, the MIC [7] was at most 0.0156 µg/mL, the MIC [8] was at most 0.0156 µg/mL and the MIC [9] was at most 0.0156 µg/mL. It also gave an MIC [10] of at most 0.0156 µg/mL, an MIC [11] of 0.5 µg/mL (≈ 0.915 µM) and an MIC [12] of 0.0313 µg/mL (≈ 0.0573 µM). For the same molecule, the MIC [13] was 16 µg/mL (≈ 29.3 µM), the MIC [14] was 2 µg/mL (≈ 3.66 µM) and the MIC [15] was 1 µg/mL (≈ 1.83 µM).
With `CN(C)[C@@H]1C(O)=C(C(N)=O)C(=O)[C@@]2(O)C(O)=C3C(=O)c4c(O)c(NC(=O)CN5CCOCC5)cc(F)c4C[C@H]3C[C@@H]12` [Compound 44] the MIC [1] was 4 µg/mL (≈ 6.96 µM), the MIC [2] was 4 µg/mL (≈ 6.96 µM) and the MIC [3] was 8 µg/mL (≈ 13.9 µM). It also gave an MIC [4] of over 32 µg/mL, an MIC [5] of over 32 µg/mL and an MIC [6] of 8 µg/mL (≈ 13.9 µM). It also gave an MIC [7] of 8 µg/mL (≈ 13.9 µM), an MIC [8] of 8 µg/mL (≈ 13.9 µM) and an MIC [9] of 0.5 µg/mL (≈ 0.87 µM). The MIC [10] was 1 µg/mL (≈ 1.74 µM), the MIC [11] was 32 µg/mL (≈ 55.7 µM) and the MIC [12] was 8 µg/mL (≈ 13.9 µM). For the same molecule, the MIC [13] was over 32 µg/mL, the MIC [14] was over 32 µg/mL and the MIC [15] was over 32 µg/mL.
In the case of `CN(C)[C@@H]1C(O)=C(C(N)=O)C(=O)[C@@]2(O)C(O)=C3C(=O)c4c(O)c(NC(=O)CN5CC[C@H](O)C5)cc(F)c4C[C@H]3C[C@@H]12` [Compound 40], the MIC [1] is reported as 1 µg/mL (≈ 1.74 µM), the MIC [2] is reported as 1 µg/mL (≈ 1.74 µM) and the MIC [3] is reported as 1 µg/mL (≈ 1.74 µM). It also gave an MIC [4] of over 32 µg/mL, an MIC [5] of 32 µg/mL (≈ 55.7 µM) and an MIC [6] of 16 µg/mL (≈ 27.8 µM). The MIC [7] was 1 µg/mL (≈ 1.74 µM), the MIC [8] was 1 µg/mL (≈ 1.74 µM) and the MIC [9] was 0.0625 µg/mL (≈ 0.109 µM). It also gave an MIC [10] of 0.5 µg/mL (≈ 0.87 µM), an MIC [11] of 4 µg/mL (≈ 6.96 µM) and an MIC [12] of 8 µg/mL (≈ 13.9 µM). The MIC [13] was 32 µg/mL (≈ 55.7 µM), the MIC [14] was 4 µg/mL (≈ 6.96 µM) and the MIC [15] was 8 µg/mL (≈ 13.9 µM).
